According to patent US6362341B1, “Benzyl compounds which inhibit leukocyte adhesion mediated by VLA-4” (Athena Neurosciences, Inc., priority 1997, dated 2002):
Non-standard residues stand in square brackets, D forms with d. Residues, ends and D or L forms follow the SMILES beside them. *: point of attachment. Tos = Cc1ccc(S(=O)(=O)*)cc1; Thz = O=C(O)[C@@H]1CSCN1

test system: Experimental Autoimmune Encephalomyelitis (EAE) model, motor impairment; experiment: In vivo evaluation - Experimental Autoimmune Encephalomyelitis (EAE); set-up: species or system Lewis rats or Hartley guinea pigs; details: active = delayed onset of symptoms, e.g. clinical scores no greater than 2 or slowed body weight loss as compared to the control; treatment from Day 8, bid, five days

| Structure (SMILES) | activity in EAE model (delay of onset of symptoms) |
| --- | --- |
| Cc1ccc(S(=O)(=O)N2CCC[C@H]2C(=O)N[C@@H](Cc2ccccc2)C(=O)O)cc1 [Example 3, N-(Toluene-4-sulfonyl)-L-prolyl-L-phenylalanine] (Tos-Pro-Phe-OH) | active |

test system: not given; experiment: not given; details: not given

| melting point | Structure (SMILES) |
| --- | --- |
| 91 to 95 °C | Cc1ccc(S(=O)(=O)N2CCC[C@H]2C(=O)NC(Cc2ccccc2)C(=O)NCCC(=O)O)cc1 (mixture of isomers) [Example 45, N-(Toluene-4-sulfonyl)-L-prolyl-D,L-phenylalanyl-β-alanine] |
| 153 to 163 °C | Cc1ccc(S(=O)(=O)N2CCC[C@H]2C(=O)NC(Cc2nc[nH]n2)C(=O)O)cc1 (mixture of isomers) [Example 66, N-(Toluene-4-sulfonyl)-L-prolyl-D,L-β-(1,2,4-triazol-3-yl)alanine] |
| 69 to 71 °C | O=C(O)[C@H](Cc1ccccc1)NC(=O)[C@@H]1CCCN1S(=O)(=O)c1ccc(Cl)cc1 [Example 10, N-(4-Chlorobenzenesulfonyl)-L-prolyl-L-phenylalanine] |
| 163 to 165 °C | COC(=O)c1ccccc1S(=O)(=O)N1CCC[C@H]1C(=O)N[C@@H](Cc1ccccc1)C(=O)O [Example 18, N-(2-Methoxycarbonylbenzenesulfonyl)-L-prolyl-L-phenylalanine] |
| 60 to 65 °C | Cc1ccc(S(=O)(=O)N2CSC[C@H]2C(=O)N[C@@H](Cc2ccccc2)C(=O)O)cc1 [Example 20, N-(Toluene-4-sulfonyl)-L-thiaprolyl-L-phenylalanine] (Tos-[Thz]-Phe-OH) |
| 70 to 80 °C | O=C(O)[C@H](Cc1ccccc1)NC(=O)[C@@H]1CCCN1S(=O)(=O)c1ccc([N+](=O)[O-])cc1 [Example 27, N-(4-Nitrobenzenesulfonyl)-L-prolyl-L-phenylalanine] |
| 127 to 130 °C | Cc1ccc(S(=O)(=O)N2CCC[C@H]2C(=O)N[C@@H](Cc2ccccc2)C(=O)NOCc2ccccc2)cc1 [Example 43, N-(Toluene-4-sulfonyl)-L-prolyl-L-phenylalanine N-Benzyloxyamide] |
